Five compounds from ChEMBL document CHEMBL3352505, “Pentacycloundecylamines and conjugates thereof as chemosensitizers and reversed chloroquine agents” (Bioorg Med Chem Lett, 2014) can be followed below.

The test system of one data set is CHO. Description: Cytotoxicity against CHO cells by MTT assay. The class given is cell-based, Cricetulus griseus. The note with it: for IC50: Cricetulus griseus, CHO. A general note: Tetrazolium assays rely on reduction of a dye to a coloured formazan, in cell work by metabolically active cells.
Data set [1] relates to Plasmodium falciparum. Description: Antimicrobial activity against chloroquine-resistant Plasmodium falciparum Dd2. The format is functional.
Data set [2] has as its system Plasmodium falciparum. Description: Antimicrobial activity against chloroquine-sensitive Plasmodium falciparum D10. The format is functional.
Data set [3] concerns Plasmodium falciparum. Description: Resistance modification index, ratio of IC50 for chloroquine in presence of 1 uM compound to IC50 for chloroquine alone for chloroquine-resistant Plasmodium falciparum Dd2. The class given is functional.
For data set [4], the system named is Plasmodium falciparum. Description: Resistance modification index, ratio of IC50 for chloroquine in presence of 10 uM compound to IC50 for chloroquine alone for chloroquine-resistant Plasmodium falciparum Dd2. The format is functional.
Data set [5] can be described thus: Selectivity index, ratio of IC50 for CHO cells to IC50 for chloroquine-sensitive Plasmodium falciparum D10. The format is toxicity, cell-based. To be noted: hamster; read-out: Ratio IC50.
Data set [6] deals with Plasmodium falciparum. Description: Resistance index, ratio of IC50 for chloroquine-resistant Plasmodium falciparum Dd2 to IC50 for chloroquine-sensitive Plasmodium falciparum D10. The format is functional.
The test system of data set [7] is Plasmodium falciparum. Description: Ratio of chloroquine IC50 to compound IC50 for chloroquine-resistant Plasmodium falciparum Dd2. The class given is functional.

As a reminder, the IC50 is the concentration that gives 50% inhibition. High values mean lower potency, low ones higher potency. `c1ccc(CNC23OC4C5C6CC(C7C6C4C72)C53)cc1` (configuration not stated): the Activity result in the data set with CHO (chinese hamster, cho) was “Non-toxic”. Also, the IC50 in the data set with Plasmodium falciparum [1] and in the data set on Plasmodium falciparum [2] was over 2000 nM throughout. Moreover, the “Ratio IC50” value with Plasmodium falciparum [3] is on record as 0.6; with Plasmodium falciparum [4], 0.48.
For the compound `OC12C3C4CC5C6C4C1C6C(C53)N2CCCCNc1ccnc2cc(Cl)ccc12` (configuration not stated), the IC50 came to 2390 nM in the data set with CHO, 187 nM in the data set on Plasmodium falciparum [1] and 8.45 nM in the data set on Plasmodium falciparum [2]. Further, the selectivity ratio in data set [5] is 283. For the same compound, in the data set on Plasmodium falciparum [6], the “Ratio IC50” value is listed as 22.
With `OC12C3C4CC5C6C4C1C6C(C53)N2CCNc1ccnc2cc(Cl)ccc12` (configuration not stated), the results for the concentration for half-maximal inhibition (IC50) in the data set with CHO, with Plasmodium falciparum [1] and with Plasmodium falciparum [2] were 9540 nM, 27.6 nM and 3.74 nM, respectively. Also, the selectivity ratio in data set [5] was 2550. The “Ratio IC50” value turned out to be 7 with Plasmodium falciparum [6] and 5 with Plasmodium falciparum [7].
`OC12C3C4CC5C6C4C1C6C(C53)N2CCCCCCNc1ccnc2cc(Cl)ccc12` (configuration not stated): the half-maximal inhibitory concentration (IC50) is 2630 nM in the data set on CHO, 253 nM in the data set on Plasmodium falciparum [1] and 17.6 nM in the data set on Plasmodium falciparum [2]. Besides, the selectivity ratio in data set [5] was 149. For the same compound, in the data set on Plasmodium falciparum [6], the “Ratio IC50” value was determined as 14.
Take `CC[C@H]1CN2CCc3cc(OC)c(OC)cc3[C@@H]2C[C@@H]1C[C@H]1NCCc2cc(OC)c(OC)cc21` [EMETINE]: in the data set on CHO, the IC50 turned out to be 61 nM.
